# Data from patent US9062028B2, “Bicyclic nitrogen containing heteroaryl TGR5 receptor modulators” (Bristol-Myers Squibb Company, priority 2011, dated 2015).
# Counter-ions that a name gives are not always drawn.
# Target: T1, recombinant human TGR5 (Homo sapiens, UniProt Q8TDU6)
# T1 construct: expressed in transfected cells
# T1 sequence (Q8TDU6 1-330): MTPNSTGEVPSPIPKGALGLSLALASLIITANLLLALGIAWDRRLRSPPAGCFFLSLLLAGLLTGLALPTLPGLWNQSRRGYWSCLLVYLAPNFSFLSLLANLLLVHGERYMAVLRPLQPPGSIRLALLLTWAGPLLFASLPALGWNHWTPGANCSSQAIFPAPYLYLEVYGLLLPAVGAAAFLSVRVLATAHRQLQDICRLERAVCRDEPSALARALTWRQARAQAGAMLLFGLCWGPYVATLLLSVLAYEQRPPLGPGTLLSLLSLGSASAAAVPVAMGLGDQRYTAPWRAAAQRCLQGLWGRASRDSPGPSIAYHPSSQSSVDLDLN
# Experiment: cAMP assay (cAMP accumulation, HTRF) in CHOK1 cells stably expressing TGR5
# Format: cell-based
# Settings: CHOK1 cells stably expressing human TGR5, 30 minutes at RT, 1% DMSO
# Protocol: The in vitro modulation of recombinant human TGR5 was determined as follows.
# A human TGR5 expression construct of human TGR5 was integrated into the genome of a CHOK1 cell line (Invitrogen). Once a stable CHOK1 cell line was generated, the cells were incubated for 5-10 minutes in culture medium consisting of F-12 (Invitrogen#11765-047) supplemented with 10% fetal bovine serum.
# On the day of the cAMP accumulation assay, cells stably expressing the […] TGR5 construct were centrifuged at 1000 rpm for 5 minutes. The medium was aspirated and the cells were resuspended in 5 mL of assay buffer (phosphate-buffered saline with Ca^2+ and Mg^2+, Invitrogen#14040). The cells were counted using 1:2 dilution and then adjusted to 0.4-0.5×10^6 cells/mL in assay buffer, if necessary. Isobutylmethylxanthine (IBMX, Sigma#I5879) was added via a 1:5000 dilution to make a 0.1 mM final concentration and then 10 μL of the media were transferred to each well of a 384 well poly-D-lysine coated solid white plate (BD #35-6661) pre-dotted with 100 nL of with the desired concentration of compound added from a concentrated stock dissolved in dimethyl sulfoxide (DMSO) to give a final concentration of 1% DMSO in the assay. The plates were covered and incubated for 30 minutes at RT. cAMP accumulation was measured using the CisBio homogeneous time resolved fluorescence (HTRF) assay kit (#62AM2PEC) following the manufacturer's protocol. Briefly, 5 μl each of the cAMP-HTRF fluorescence detection reagents were added to each well, and the samples were incubated for at least one hour at room temperature. Fluorescence was excited at 320 nm and measured at 665 and 620 nm using the Envision instrument (Perkin Elmer), the fluorescence ratio of 665/620 was calculated and converted to nanomolar concentrations of cAMP in each well by interpolation from a cAMP standard curve. The concentration-response curves and EC50 values were calculated with a four parameter logistic curve fit equation utilizing Excel/XLfit software (Microsoft and IDBS). The EC50 value was calculated as the concentration of agonist which increased the cAMP concentration to a value halfway between the baseline and the maximum.
row,SMILES,EC50 [nM]
1,"Cc1c(Cl)cccc1OCCCC(=O)N1CCCOc2c(-c3cnn(Cc4c(F)cc(C(=O)N[C@@H](CCCCN)C(=O)O)cc4Cl)c3)cccc21 [Example 792, (S)-6-Amino-2-(3-chloro-4-((4-(5-(4-(3-chloro-2-methylphenoxy)butanoyl)-2,3,4,5-tetrahydrobenzo[b][1,4]oxazepin-9-yl)-1H-pyrazol-1-yl)methyl)-5-fluorobenzamido)hexanoic acid]",185
2,"Cc1c(Cl)cccc1OCCOC(=O)N1CCSc2c(-c3cnn(Cc4cccc(C(=O)NCCS(=O)(=O)O)c4Cl)c3)cccc21 [Example 626, 2-(2-Chloro-3-((4-(4-((2-(3-chloro-2-methylphenoxy)ethoxy)carbonyl)-3,4-dihydro-2H-benzo[b][1,4]thiazin-8-yl)-1H-pyrazol-1-yl)metehyl)benzamido)ethanesulfonic acid]",188
3,"Cc1cccc(CCOCC(=O)N2CCCc3c(-c4cnn(Cc5cccc(C(=O)O)c5)c4)cccc32)c1C [Example 15, 3-((4-(1-(2-(2,3-Dimethylphenethoxy)acetyl)-1,2,3,4-tetrahydroquinolin-5-yl)-1H-pyrazol-1-yl)methyl)benzoic acid]",5900
4,"Cc1cccc(OCCCC(=O)N2CCCc3c(-c4cnn(Cc5cccc(C(=O)NCCS(=O)(=O)O)c5)c4C)cccc32)c1C [Example 168J, 2-(3-((4-(1-(4-(2,3-Dimethylphenoxy)butanoyl)-1,2,3,4-tetrahydroquinolin-5-yl)-5-methyl-1H-pyrazol-1-yl)methyl)benzamido) ethanesulfonic acid]",643
5,"Cc1cccc(OCCCC(=O)N2CCCc3c(-c4cccc(C(=O)NCCS(=O)(=O)O)c4)cccc32)c1C [Example 148, 2-(3-(1-(4-(2,3-Dimethylphenoxy)butanoyl)-1,2,3,4-tetrahydroquinolin-5-yl)benzamido) ethanesulfonic acid]",3310
6,"Cc1c(Cl)cccc1OCCOC(=O)N1C[C@@H]2C[C@@H]2c2c(-c3cnn(Cc4cc(C(=O)N5C[C@@H](O)C[C@H]5C(=O)O)ccc4Cl)c3)cccc21 [Example 693, (2S,4S)-1-(4-Chloro-3-((4-((1aR,7bS)-3-((2-(3-chloro-2-methylphenoxy)ethoxy)carbonyl)-1a,2,3,7b-tetrahydro-1H-cyclopropa[c]quinolin-7-yl)-1H-pyrazol-1-yl)methyl)benzoyl)-4-hydroxypyrrolidine-2-carboxylic acid]",188
7,"Cc1cccc(OCCCC(=O)N2CCCc3c(-c4cnn(Cc5cccc(C(=O)N(CC(=O)O)CC(=O)O)c5)c4)cccc32)c1C [Example 475, 2,2′-(3-((4-(1-(4-(2,3-Dimethylphenoxy)butanoyl)-1,2,3,4-tetrahydroquinolin-5-yl)-1H-pyrazol-1-yl)methyl)benzoylazanediyl)diacetic acid]",2600
8,"Cc1c(Cl)cccc1OCCOC(=O)N1C[C@@H]2C[C@@H]2c2c(-c3cnn(Cc4cc(C(=O)N[C@@H](CCC[N+](C)(C)C)C(=O)O)ccc4Cl)c3)cccc21 [Example 690, (S)-4-Carboxy-4-(4-chloro-3-((4-((1aR,7bS)-3-((2-(3-chloro-2-methylphenoxy)ethoxy)carbonyl)-1a,2,3,7b-tetrahydro-1H-cyclopropa[c]quinolin-7-yl)-1H-pyrazol-1-yl)methyl)benzamido)-N,N,N-trimethylbutan-1-aminium, TFA salt]",45
9,"Cc1cccc(OCCCC(=O)N2CCCc3c(-c4cnn(Cc5c(F)cc(C(=O)NCCC(=O)O)cc5Cl)c4)cccc32)c1C [Example 176, 3-(3-Chloro-4-((4-(1-(4-(2,3-dimethylphenoxy)butanoyl)-1,2,3,4-tetrahydroquinolin-5-yl)-1H-pyrazol-1-yl)methyl)-5-fluorobenzamido) propanoic acid]",47
10,"Cc1c(Cl)cccc1OCCCC(=O)N1CCCOc2c(-c3cnn(Cc4ccc(C(=O)NCS(=O)(=O)O)cc4F)c3)cccc21 [Example 719, (4-((4-(5-(4-(3-Chloro-2-methylphenoxy)butanoyl)-2,3,4,5-tetrahydrobenzo[b][1,4]oxazepin-9-yl)-1H-pyrazol-1-yl)methyl)-3-fluorobenzamido)methanesulfonic acid]",188
11,"Cc1c(Cl)cccc1OCCCC(=O)N1CCSc2c(-c3cnn(Cc4c(F)cc(C(=O)NCCS(=O)(=O)O)cc4Cl)c3)cccc21 [Example 574, 2-(3-Chloro-4-((4-(4-(4-(3-chloro-2-methylphenoxy)butanoyl)-3,4-dihydro-2H-benzo[b][1,4]thiazin-8-yl)-1H-pyrazol-1-yl)methyl)-5-fluorobenzamido) ethanesulfonic acid]",23
12,"Cc1c(Cl)cccc1OCCOC(=O)N1C[C@@H]2C[C@@H]2c2c(-c3cnn(Cc4cc(C(=O)NC(CNS(C)(=O)=O)C(=O)O)ccc4Cl)c3)cccc21 (stereo partly drawn) [Example 685, 2-(4-Chloro-3-((4-((1aR,7bS)-3-((2-(3-chloro-2-methylphenoxy)ethoxy)carbonyl)-1a,2,3,7b-tetrahydro-1H-cyclopropa[c]quinolin-7-yl)-1H-pyrazol-1-yl)methyl)benzamido)-3-(methylsulfonamido)propanoic acid]",49
13,"Cc1cccc(OCCCC(=O)N2CCCc3c(-c4cnc(OCC(=O)O)nc4)cccc32)c1C [Example 124, 2-(5-(1-(4-(2,3-Dimethylphenoxy)butanoyl)-1,2,3,4-tetrahydroquinolin-5-yl)pyrimidin-2-yloxy)acetic acid, TFA salt]",5000
14,"Cc1c(Cl)cccc1OCCCC(=O)N1C[C@@H]2C[C@@H]2c2c(-c3cnn(Cc4cccc(C(=O)NCC(=O)O)c4)c3)cccc21 (single isomer, unassigned) [Example 244]",46
15,"Cc1c(Cl)cccc1OCCOC(=O)N1C[C@@H]2C[C@@H]2c2c(-c3cnn(Cc4cc(C(=O)NCC5(C(=O)O)CC5)ccc4Cl)c3)cccc21 [Example 699, 1-((4-Chloro-3-((4-((1aR,7bS)-3-((2-(3-chloro-2-methylphenoxy)ethoxy)carbonyl)-1a,2,3,7b-tetrahydro-1H-cyclopropa[c]quinolin-7-yl)-1H-pyrazol-1-yl)methyl)benzamido)methyl) cyclopropanecarboxylic acid]",41
16,"Cc1c(Cl)cccc1OCCCC(=O)N1C[C@@H]2C[C@@H]2c2c(-c3cnn(Cc4cccc(N5C(=O)[C@H](CCC[N+](C)(C)C)N(C)C5=O)c4)c3)cccc21 [Example 352, 3-((S)-1-(3-((4-((1aR,7bS)-3-(4-(3-Chloro-2-methylphenoxy)butanoyl)-1a,2,3,7b-tetrahydro-1H-cyclopropa[c]quinolin-7-yl)-1H-pyrazol-1-yl)methyl)phenyl)-3-methyl-2,5-dioxoimidazolidin-4-yl)-N,N,N-trimethylpropan-1-aminium, TFA salt]",196
17,"Cc1cccc(OCCCC(=O)N2CCCc3c(-c4cnn(Cc5cccc(C(=O)N[C@@H](C)C(=O)O)c5)c4)cccc32)c1C [Example 864, (S)-2-(3-((4-(1-(4-(2,3-Dimethylphenoxy)butanoyl)-1,2,3,4-tetrahydroquinolin-5-yl)-1H-pyrazol-1-yl)methyl)benzamido)propanoic acid]",193
18,"Cc1c(Cl)cccc1OCCCC(=O)N1C[C@@H]2C[C@@H]2c2c(-c3cnn(Cc4cccc(C(=O)NCS(=O)(=O)O)c4)c3)cccc21 (single isomer, unassigned) [Example 242]",49
19,"Cc1c(Cl)cccc1OCCCC(=O)N1CCSc2c(-c3cnn(Cc4c(F)cc(C(=O)NCCC(=O)O)cc4Cl)c3)cccc21 [Example 577, 3-(3-Chloro-4-((4-(4-(4-(3-chloro-2-methylphenoxy)butanoyl)-3,4-dihydro-2H-benzo[b][1,4]thiazin-8-yl)-1H-pyrazol-1-yl)methyl)-5-fluorobenzamido)propanoic acid]",31
20,"Cc1cccc(OCCCC(=O)N2CCCc3c(-c4cnn(Cc5c(F)cc(C(=O)NCC(=O)O)cc5Cl)c4)cccc32)c1C [Example 177, 2-(3-Chloro-4-((4-(1-(4-(2,3-dimethylphenoxy)butanoyl)-1,2,3,4-tetrahydroquinolin-5-yl)-1H-pyrazol-1-yl)methyl)-5-fluorobenzamido)acetic acid]",48
21,"Cc1cccc(OCCCC(=O)N2CCCc3c(-c4cccc(COC(=O)NCC(F)(F)C(=O)O)c4)cccc32)c1C [Example 297, 3-((3-(1-(4-(2,3-Dimethylphenoxy)butanoyl)-1,2,3,4-tetrahydroquinolin-5-yl)benzyloxy)carbonylamino)-2,2-difluoropropanoic acid]",687
